pIC50: −log10 of the molar value.
How the values were obtained:
[1] = test system: JAK1 pathway (P-STAT6 in TF-1 human erythroleukemia cells + IL-13); experiment: P-STAT6 TF-1+Interleukin-13 (IL-13) assay; format: cell-based; conditions: Homo sapiens, TF-1, 0.5 h, TF-1 cells, 30 minutes compound, IL-13 10 minutes; IC50 by four-parameter fit; read-out: Cellular PSTAT6 TF-1 + IL13
Protocol: (§1) TF-1 human erythroleukemia cells (ATCC®; Manassas, VA; Catalog No. CRL-2003™) were grown in Roswell Park Memorial Institute (RPMI) medium supplemented with 10% heat-inactivated fetal bovine serum (FBS), 2 ng/mL granulocyte-macrophage colony-stimulating factor, 1× non-essential amino acids (NEAA), and 1 mM sodium pyruvate. The day before the assay, the cultures were transferred to Opti-MEM™, 1×NEAA, 1 mM sodium pyruvate, and 0.5% charcoal-stripped FBS (starve medium). Inhibitor stock solutions (5 mM in DMSO) were serially diluted 1:2 in DMSO to generate a 10-point concentration titration (at 500× test concentration), which was further diluted by a 50-fold dilution in Assay Medium (RPMI containing 1×NEAA and 1 mM sodium pyruvate) to generate a 10× concentration titration (in 2% DMSO). The cells (300,000 cells/well in 35 μL of Assay Medium) were seeded in 384-well Greiner plates. Diluted inhibitor at 10× concentration (5 μL) was added to the cells and the plates were incubated for 30 minutes at 37° C. in a humidified incubator. Cells were stimulated with the human recombinant cytokine at the respective EC90 concentrations, as previously determined for each individual lot. For the phosphorylated signal transducer and activator of transcription 6 (P-STAT6) TF-1+Interleukin-13 (IL-13) assay, 10 μL of 250 ng/mL IL-13 (R&D Systems; Minneapolis, MN) was added to the cells, which were then incubated for 10 minutes at 37° C. For the P-STAT5 TF-1+Erythropoietin (EPO) assay, 10 μL of 110 IU/mL EPO (Gibco Life Technologies, Catalog No. PHC2054) was added to the cells, which were then incubated for 30 min at 37° C. For both assays, the incubation was followed by addition to the cells of 5 μL of ice-cold 10× cell lysis buffer (Cell Signaling Technologies; Danvers, MA; Catalog No. 9803S) containing 1 mM phenylmethylsulfonyl fluoride (PMSF). Assay plates were frozen at −80° C. for a minimum of 1 hour. In the IL-13 assay, P-STAT6 was measured by coating goat anti-rabbit (GAR) plates (Meso Scale Discovery [MSD]; Rockville, MD; Catalog No. MSD L21RA-1) with rabbit anti-human total STAT6 antibody (Cell Signaling Technologies; Catalog No. 9362S), incubating the cell lysates in the coated plates overnight at 4° C., and then detecting with mouse anti-P-STAT6 (Tyr641) Clone 16E12 antibody (MilliporeSigma; Burlington, MA; Catalog No. 05-590, custom labeled by MSD with SULFO-tag) using standard MSD plate processing, washing, and detection protocols. In the EPO assay, P-STAT5 was detected using the phospho-STAT5a,b Whole Cell Lysate Kit (MSD; Catalog No. K150IGD-1). The electrochemiluminescence (ECL) signal of wells was read on the MESO SECTOR S600 (MSD) reader.
(§2) Data analysis was performed by subtracting the negative control (cytokine stimulated and 20 μM control inhibitor-treated cells) mean ECL value from the ECL value of all wells, determining percent of control for test compound well ECL values relative to the positive control (cytokine stimulated and DMSO-treated cells) mean ECL value, and determining the IC50 for test compounds with a four-parameter logistic fit model as shown in Equation 4.

[2] = test system: JAK2 pathway (P-STAT5 in TF-1 human erythroleukemia cells + EPO); experiment: P-STAT5 TF-1+Erythropoietin (EPO) assay; format: cell-based; conditions: Homo sapiens, TF-1, 0.5 h, TF-1 cells, 30 minutes compound, EPO 30 min; IC50 by four-parameter fit; read-out: Cellular (JAK2 PSTAT5 TF1 + EPO)
Protocol: as §1, §2

| SMILES | pIC50 [1] | pIC50 [2] |
| --- | --- | --- |
| CN1CCC(n2nnnc2Cn2cc(NC(=O)c3cnn4cccnc34)c(-c3cc(OC(F)F)ccc3OC(F)F)n2)C1 (stereo not shown) [Example 26, N-[3-[2,5-bis(difluoromethoxy)phenyl]-1-[[1-(1-methylpyrrolidin-3-yl)tetrazol-5-yl]methyl]pyrazol-4-yl]pyrazolo[1,5-a]pyrimidine-3-carboxamide] | 7.96 | 7.74 |
| CN(CCN1CC(n2nnc(Cn3cc(NC(=O)c4cnn5cccnc45)c(-c4cc(OC(F)F)ccc4OC(F)F)n3)n2)C1)C(=O)OC(C)(C)C [Example 31, tert-butyl N-[2-[3-[5-[[3-[2,5-bis(difluoromethoxy)phenyl]-4-(pyrazolo[1,5-a]pyrimidine-3-carbonylamino)pyrazol-1-yl]methyl]tetrazol-2-yl]azetidin-1-yl]ethyl]-N-methyl-carbamate] | 7.89 | 8.07 |
| CN(C)CCN1CC(n2nnc(Cn3cc(NC(=O)c4cnn5cccnc45)c(-c4cc(Cl)ccc4OC(F)F)n3)n2)C1 [Example 37, N-[3-[5-chloro-2-(difluoromethoxy)phenyl]-1-[[2-[1-[2-(dimethylamino)ethyl]azetidin-3-yl]tetrazol-5-yl]methyl]pyrazol-4-yl]pyrazolo[1,5-a]pyrimidine-3-carboxamide] | 8.16 | 7.80 |
| CN1CCC(N2CC(n3nnc(Cn4cc(NC(=O)c5cnn6cccnc56)c(-c5cc(OC(F)F)ccc5OC(F)F)n4)n3)C2)CC1 [Example 38, N-[3-[2,5-bis(difluoromethoxy)phenyl]-1-[[2-[1-(1-methyl-4-piperidyl)azetidin-3-yl]tetrazol-5-yl]methyl]pyrazol-4-yl]pyrazolo[1,5-a]pyrimidine-3-carboxamide] | 7.68 | 7.38 |
| CSc1ccc(OC(F)F)c(-c2nn(Cc3nnn(C4CN(CCCN(C)C)C4)n3)cc2NC(=O)c2cnn3cccnc23)c1 [Example 58, N-[3-[2-(difluoromethoxy)-5-methylsulfanyl-phenyl]-1-[[2-[1-[3-(dimethylamino)propyl]azetidin-3-yl]tetrazol-5-yl]methyl]pyrazol-4-yl]pyrazolo[1,5-a]pyrimidine-3-carboxamide] | 7.29 | 7.62 |
| CN(C)CCN1CCC(n2nnc(Cn3cc(NC(=O)c4cnn5cccnc45)c(-c4cc(OC(F)F)ccc4OC(F)F)n3)n2)CC1 [Example 61, N-[3-[2,5-bis(difluoromethoxy)phenyl]-1-[[2-[1-[2-(dimethylamino)ethyl]-4-piperidyl]tetrazol-5-yl]methyl]pyrazol-4-yl]pyrazolo[1,5-a]pyrimidine-3-carboxamide] | 7.48 | 7.44 |
| CN(C)[C@H]1C[C@H](N2CC(n3nnc(Cn4cc(NC(=O)c5cnn6cccnc56)c(-c5cc(OC(F)F)ccc5OC(F)F)n4)n3)C2)C1 [Example 70, N-[3-[2,5-bis(difluoromethoxy)phenyl]-1-[[2-[1-[3-(dimethylamino)cyclobutyl]azetidin-3-yl]tetrazol-5-yl]methyl]pyrazol-4-yl]pyrazolo[1,5-a]pyrimidine-3-carboxamide] | 7.52 | 7.92 |
| CN1CC(N2CC(n3nnc(Cn4cc(NC(=O)c5cnn6cccnc56)c(-c5cc(OC(F)F)ccc5OC(F)F)n4)n3)C2)C1 [Example 78, N-[3-[2,5-bis(difluoromethoxy)phenyl]-1-[[2-[1-(1-methylazetidin-3-yl)azetidin-3-yl]tetrazol-5-yl]methyl]pyrazol-4-yl]pyrazolo[1,5-a]pyrimidine-3-carboxamide; formic acid] | 7.21 | 7.33 |
